Literature values in US20100092397A1, “Method For Treatment of COPD and Other Pulmonary Diseases” (Activaero GmbH, priority 2008, published 2010).

How the values were obtained:
[1] = tested on: subjects with moderate-severe COPD; settings: nebulized ADC4022 12.5 mg twice daily plus budesonide 1 mg twice daily for 4 weeks, versus placebo plus budesonide
[2] = systemic (oral or i.v.) administration; levels above this range result in side effects

| Compound | lung function [1] | recommended effective range, plasma level [2] |
| --- | --- | --- |
| Cn1c(=O)c2[nH]cnc2n(C)c1=O [ADC4022] | stable |  |
| Cn1c(=O)c2[nH]cnc2n(C)c1=O [Theophylline, theophylline] |  | 10 to 20 mg/L |
